Results: patent US8980848B2, “Flavonoid dimers and their use” (The Hong Kong Polytechnic University, priority 2010, dated 2015)
Read-outs that look alike come from different tables or passages of the source.

What was measured:
Pgp (LCC6MDR cells) [1] = molecular target: T1, Pgp (LCC6MDR cells) (Homo sapiens, UniProt P08183)
Description: (§3) Cell Proliferation Assay. 6,000 cells of LCC6 or LCC6MDR and anticancer drugs (paclitaxel, vinblastine, vincristine, doxorubicin and mitoxantrone) were mixed with or without modulators to a final volume of 200 μL in each well of 96-well plates. […] The plates were then incubated for 5 days at 37° C. […] IC50 values were calculated from the dose-response curves of MTS assays (Prism 4.0).

LCC6 cells [2] = assay: Tumor cell line cytotoxicity of flavonoid dimers, LCC6; assay type: cell-based, human; conditions: IC50 of compound alone, 72 hrs
In short: (§1)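 LCC6, LCC6MDR and L929 cells seeded at 1×10^4 cells/well and exposed to graded doses of flavonoid dimers. Incubation 72 hrs at 37° C., 5% CO2. Read-out: % survivors.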

LCC6MDR cells = assay: Tumor cell line cytotoxicity of flavonoid dimers, LCC6MDR; assay type: cell-based, human; conditions: IC50 of compound alone, 72 hrs
In short: as §1

L929 cells = assay: Cytotoxicity of flavonoid dimers, L929 mouse fibroblast; assay type: cell-based
In short: as §1

Raw264.7 cells = assay: Cytotoxicity, mouse macrophage Raw264.7; assay type: cell-based; conditions: 72 hrs
In short: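 Raw264.7 (1×10^4 cells/well) and primary PEM cells (2×10^4 cells/well) in supplemented DMEM received graded compound doses and were incubated 72 h at 37 °C, 5% CO2. Percent survivors determined; cytotoxicity IC50 used for therapeutic index against antileishmanial IC50.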

Pgp (LCC6MDR cells) [3] = molecular target: T1, Pgp (LCC6MDR cells); assay: Cell proliferation assay: Pgp-modulating activity, reversal of anticancer drug resistance in LCC6MDR cells; conditions: for RF (Relative Fold), cpd at 0.5 μM: RF = (IC50 without modulator)/(IC50 with 0.5 μM modulator); for RF (Relative Fold), cpd at 0.5 μM / RF (Relative Fold), cpd at 1 μM: paclitaxel, LCC6MDR; for RF (Relative Fold), cpd at 1 μM: RF = (IC50 without modulator)/(IC50 with 1.0 μM modulator)
Description: as §3

[4] = test system: LCC6, LCC6MDR and L929 cell lines; assay: Cytotoxicity over LCC6, LCC6MDR and L929 cell lines; assay type: cell-based, human, mouse
Description: (b) Tumor Cell Line Cytotoxicity. The tumor cytotoxicity assays of flavonoid dimers were performed against LCC6, LCC6MDR and L929 cell lines. The cells were grown in supplemented DMEM media in an atmosphere of 95% air and 5% CO2 at 37° C. In brief, LCC6, LCC6MDR and L929 cells were seeded into 96-well flat bottom microtiter plate at 1×10^4 cells per well in a final volume of 100 μL media, respectively. A graded dose of flavonoid dimers was added into wells. The plate was incubated at 37° C. for 72 hrs at the atmosphere 5% CO2 in the air. The % of survivors was determined.

[5] = test system: Ld39 promastigotes (SSG-resistant); assay: In vitro anti-promastigote activity, Ld39; assay type: cell-based, Leishmania donovani; conditions: 3 days at 27° C., MTS; read-out: Anti-promastigotes activity (IC50, μM) Ld39
In short: (§2)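 L. donovani (LdAG83 wild type, SSG-resistant Ld39) and L. major Lm50122 promastigotes were seeded at 1×10^5 per well with a concentration series of compound.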

[6] = test system: LdAG83 promastigotes (wild type); assay: In vitro anti-promastigote activity, LdAG83; assay type: cell-based, Leishmania donovani; conditions: 3 days at 27° C., MTS; read-out: Anti-promastigotes activity (IC50, μM) LdAG83
In short: as §2

Lm50122 promastigotes = assay: In vitro anti-promastigote activity, Lm50122; assay type: cell-based, Leishmania major; conditions: 3 days at 27° C., MTS; read-out: Anti-promastigotes activity (IC50, μM) Lm50122
In short: as §2

LCC6 cells [7] = assay: Doxorubicin accumulation in LCC6 cells; assay type: cell-based, human; conditions: 1 μM
Text: Doxorubycin accumulation. […] […].

T1 sequence (P08183 whole entry): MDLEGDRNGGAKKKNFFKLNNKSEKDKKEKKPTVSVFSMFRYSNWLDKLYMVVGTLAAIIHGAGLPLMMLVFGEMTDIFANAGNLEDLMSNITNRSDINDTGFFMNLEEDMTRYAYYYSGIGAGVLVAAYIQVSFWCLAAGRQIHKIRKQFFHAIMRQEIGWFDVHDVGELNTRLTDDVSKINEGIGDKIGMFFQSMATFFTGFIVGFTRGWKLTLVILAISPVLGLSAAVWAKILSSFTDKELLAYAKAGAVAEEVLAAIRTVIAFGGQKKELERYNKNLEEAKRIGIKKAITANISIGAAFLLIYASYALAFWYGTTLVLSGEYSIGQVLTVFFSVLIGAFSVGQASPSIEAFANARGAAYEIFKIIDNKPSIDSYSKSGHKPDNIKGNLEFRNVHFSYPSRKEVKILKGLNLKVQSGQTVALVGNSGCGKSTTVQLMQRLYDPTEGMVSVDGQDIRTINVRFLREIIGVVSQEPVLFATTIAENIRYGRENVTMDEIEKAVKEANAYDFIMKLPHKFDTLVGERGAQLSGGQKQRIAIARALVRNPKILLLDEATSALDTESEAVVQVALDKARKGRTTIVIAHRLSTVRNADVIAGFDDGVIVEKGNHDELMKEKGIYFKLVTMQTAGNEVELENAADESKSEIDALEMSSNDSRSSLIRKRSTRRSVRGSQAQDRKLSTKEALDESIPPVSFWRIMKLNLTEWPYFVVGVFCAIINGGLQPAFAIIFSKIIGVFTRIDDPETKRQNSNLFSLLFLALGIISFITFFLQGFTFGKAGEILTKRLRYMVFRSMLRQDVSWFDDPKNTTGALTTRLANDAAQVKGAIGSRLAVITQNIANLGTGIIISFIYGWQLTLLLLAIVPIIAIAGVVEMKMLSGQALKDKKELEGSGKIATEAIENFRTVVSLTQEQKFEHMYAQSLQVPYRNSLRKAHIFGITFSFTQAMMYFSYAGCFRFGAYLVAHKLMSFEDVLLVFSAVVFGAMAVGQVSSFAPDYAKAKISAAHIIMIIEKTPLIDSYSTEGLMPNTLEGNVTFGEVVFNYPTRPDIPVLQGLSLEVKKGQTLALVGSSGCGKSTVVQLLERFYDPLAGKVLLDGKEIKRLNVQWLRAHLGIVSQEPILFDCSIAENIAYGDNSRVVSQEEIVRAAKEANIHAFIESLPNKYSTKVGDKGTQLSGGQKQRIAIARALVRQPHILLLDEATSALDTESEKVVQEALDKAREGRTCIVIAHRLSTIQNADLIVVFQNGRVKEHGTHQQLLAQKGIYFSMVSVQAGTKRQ

Molecule | RF (Relative Fold), cpd at 0.5 μM (Pgp (LCC6MDR cells) [1]) | IC50 (LCC6 cells [2]) [µM] | IC50 (LCC6MDR cells) [µM] | IC50 (L929 cells) [µM] | IC50 (Raw264.7 cells) [µM] | RF (Relative Fold), cpd at 0.5 μM (Pgp (LCC6MDR cells) [3]) | IC50 [4] [µM] | IC50 [5] [µM] | IC50 [6] [µM] | further results
1,13-Bis[4′-((5-hydroxy)-4H-chromen-4-on-2-yl)phenyl]-7-(tert-butyloxycarbonyl)-1,4,10,13-tetraoxa-7-azamidecane [Compound 16f] | (11.3) | > 100 | > 100 | > 100 |  |  |  |  |  | 
CCN(CCOCCOc1ccc(-c2cc(=O)c3ccccc3o2)cc1)CCOCCOc1ccc(-c2cc(=O)c3ccccc3o2)cc1 [Compound 13, 1,13-Bis[4′-(4H-chromen-4-on-2-yl)phenyl]-N-(ethyl)-1,4,10,13-tetraoxa-7-azamidecane] |  | 10.3 ± 2.2 | 17.3 ± 3.8 | 6.9 ± 2 | 8.3 ± 1 | (26.9) | 6.9 to 17.3 | 5.5 ± 1.1 | 3.2 ± 0.8 | Therapeutic index (Pgp (LCC6MDR cells) [3]; IC50 of compounds for L929/EC50 of compounds for lowering paclitaxel drug resistance): 34.5; EC50 (Pgp (LCC6MDR cells) [1]): 0.2 µM
CC(C)(C)OC(=O)N(CCOCCOc1ccc(-c2cc(=O)c3c(OCc4ccccc4)cccc3o2)cc1)CCOCCOc1ccc(-c2cc(=O)c3c(OCc4ccccc4)cccc3o2)cc1 [Compound 16e, 1,13-Bis[4′-((5-benzyloxy)-4H-chromen-4-on-2-yl)phenyl]-7-(tert-butyloxycarbonyl)-1,4,10,13-tetraoxa-7-azamidecane] | (1.1) | > 100 | > 100 |  |  |  |  |  |  | 
CC(C)(C)OC(=O)N(CCOCCOc1ccc(-c2oc3ccccc3c(=O)c2OCc2ccccc2)cc1)CCOCCOc1ccc(-c2oc3ccccc3c(=O)c2OCc2ccccc2)cc1 [Compound 16g, 1,13-Bis[4′-((3-benzyloxy)-4H-chromen-4-on-2-yl)phenyl]-7-(tert-butyloxycarbonyl)-1,4,10,13-tetraoxa-7-azamidecane] |  |  |  |  |  |  |  |  |  | RF (Relative Fold), cpd at 1 μM (Pgp (LCC6MDR cells) [1]): 1.2
Cc1ccc2oc(-c3ccc(OCCOCCN(CCOCCOc4ccc(-c5cc(=O)c6cc(C)ccc6o5)cc4)C(=O)OC(C)(C)C)cc3)cc(=O)c2c1 [Compound 17c, 1,13-Bis[4′-((6-methyl)-4H-chromen-4-on-2-yl)phenyl]-N-(tert-butyloxycarbonyl)-1,4,10,13-tetraoxa-7-azamidecane] |  | > 100 | > 100 | > 100 | > 100 | (9.6) | > 100 | 100 | 21 | IC50 (Lm50122 promastigotes): > 100 µM; RF (Relative Fold), cpd at 1 μM (Pgp (LCC6MDR cells) [3]): (139.2); RF (Relative Fold), cpd at 1 μM (Pgp (LCC6MDR cells) [3]; listed as 17): 139.0
COc1ccc(CCN(C)CCCC(C#N)(c2ccc(OC)c(OC)c2)C(C)C)cc1OC (stereo not drawn) [Verapamil, verapamil, reference compound] |  |  |  |  |  |  |  |  |  | Effect on intracellular doxorubicin accumulation in parental LCC6 (LCC6 cells [7]): does not increase
